Source: US5763480A, “Inhibitors of cell-medicated disorders” (priority 1994, dated 1998)
Where two headings read alike, the source gives them in different places.

Key:
cellular proton pump = assay: Blocking of cellular proton pump by metal-chelate complexes / stopping of the block by chelating agents; settings: for blocking of the cellular proton pump in combination with Tl or In: chelating agent combined with Tl or In
bone resorption [1] = settings: cited from earlier work
[2] = system: proton pump of the osteoclast ruffled membrane vesicles; assay type: biochemical; settings: read-out: 50% effective concentration, inhibition of vesicle acidification, FIG. 3
Text: The effect of the metal-EDTA complexes on the proton pump of isolated osteoclast ruffled membrane vesicles was studied. For the study, the isolation, preparation and assay of the acidifying ruffled membrane vesicles were accomplished according to the procedures of Blair et al., J. Cell. Biochem., 48, 401-410 (1992).
The y-axis indicates the acidification by the membranes in relation to the molar concentration of the test composition, as indicated on the x-axis.

[3] = Solubility of Tl and In EDTA complexes versus halide salts in physiological saline; assay type: physicochemical; settings: physiological saline / physiological solvents
Text: The pH of the resulting solutions was then raised to pH 7.0 and filtered to achieve sterility. […] The solubility characteristics of these Tl and In complexes were compared to the solubility characteristics of the respective halogen salts.

bone resorption [4] = settings: in vivo; cited from earlier work
osteoclasts = assay: Inhibition of osteoclast-mediated bone resorption in vitro (release of radiolabelled bone); assay type: cell-based, laying hens; settings: read-out: 50% effective concentration, inhibition of bone resorption by osteoclasts in culture, FIG. 2, up to six days, labelled bone, 10,000 cells per well
Method: Osteoclasts were isolated from calcium-deprived, laying hens, and metabolically radiolabelled bone was prepared therefrom (Blair et al., J. Cell Biol., 102, 1164-1172 (1986)). These osteoclasts were cultured in 24 well dishes at 10,000 cells per well, to which were added labelled bone and test compounds. The culture supernatants were assayed for released radioactivity for up to six days after the addition of the labelled bone.
The y-axis indicates the percentage of the total radiolabelled bone that was released by osteoclast activity to the culture supernatant in response to varying the molar concentration (x-axis) of the various test compositions. […] The 50% effective concentrations of suramin and gallium nitrate were 700 nM and 2000 nM, respectively.

[5] = system: chloride channel and proton pump of ruffled membrane vesicles; assay: Valinomycin reversal test distinguishing chloride channel and proton pump in ruffled membrane vesicles; assay type: biochemical; settings: control measurement, 1 micromolar valinomycin
Method: Because both the chloride channel and the proton pump are present in the ruffled membrane vesicles, the inhibition of acidification that was observed was possibly due to effects on either or both of these transporters. The effects of these two transporters were distinguished in other experiments by noting and using the differential effects of valinomycin on the chloride channel and proton pump in the presence of 120 mM K^+. This drug relieves the build-up of membrane potential yet permits proton transport.

[6] = system: osteoclast-mediated bone resorption; assay: PTH stimulated bone resorption of rats in vivo, serum calcium (hypercalcemia model)
Method: The ability of the metal-EDTA complexes to inhibit osteoclast-mediated bone resorption was tested on two groups of experimental rats treated to provide a hypercalcemia model (according to the procedures of Jaeger et al., Am. J. Physiol., 252, E790-E798 (1987)) as compared to two groups of untreated control rats. Experimental rats were surgically parathyroidectomized, and the effectiveness of the parathyroidectomy was gauged by determining the subject rats' serum calcium levels 72 hours post-surgery. A fall in calcium observed at that time reflected the decrease of bone resorption resulting from the removal of the parathyroid glands and the consequent decrease in circulating parathyroid hormone (PTH), a regulator of extra-cellular Ca^++ concentration. […] Serum calcium levels were determined after a 24-hour fast on the third day after the last drug administration and again two weeks later.
All the animals in this study underwent the same two surgical procedures and received PTH via the implanted osmotic pump starting on day 3. […] After the two weeks were complete, serum calcium was determined again and compared to the earlier values and the controls. […]

Molecule: O=C(O)CN(CC(=O)O)[C@@H]1CCCC[C@H]1N(CC(=O)O)CC(=O)O (relative stereo) [CDTA, trans-1,2-diaminocyclohexane-N,N,N',N'-tetraacetic acid]
- stopping of the proton pump-blocking effect by chelating agent (cellular proton pump; In(III) and Tl(III)): stops the cellular proton pump-blocking effect
- blocking of the cellular proton pump in combination with Tl or In (cellular proton pump): ineffective

Molecule: [Al] [Aluminum]
- effect on bone calcium loss / bone resorption (bone resorption [1]; gallium nitrate in humans, aluminum in accidental poisoning): inhibit bone resorption

Molecule: O=C(O)CN(CCN(CC(=O)O)CC(=O)O)CCN(CC(=O)O)CC(=O)O [DPTA, diethylenetriaminepentaacetic acid]
- stopping of the proton pump-blocking effect by chelating agent (cellular proton pump; In(III) and Tl(III)): stops the cellular proton pump-blocking effect
- blocking of the cellular proton pump in combination with Tl or In (cellular proton pump): ineffective

Molecule: O=C(O)CN(CCN(CC(=O)O)CC(=O)O)CC(=O)O [EDTA, ethylenediaminetetraacetic acid]
- suitability for stopping the effect (cellular proton pump; metal is Tl or In): not a suitable chelating agent for stopping the effect

Molecule: O=C(O)CN(CCOCCOCCN(CC(=O)O)CC(=O)O)CC(=O)O [EGTA, ethylene glycol bis (o-aminoethyl ether) N,N,N',N'-tetraacetic acid]
- stopping of the proton pump-blocking effect by chelating agent (cellular proton pump; Ga(III)): stops the cellular proton pump-blocking effect
- blocking of the cellular proton pump in combination with Tl or In (cellular proton pump): ineffective

Molecule: [Ga] [Ga, gallium]
- EC50 [2]: 300 µM

Molecule: [Tl] [Tl, thallium]
- EC50 [2]: 30 µM

Molecule: [Cl][Tl]([Cl])[Cl] [TlCl3]
- solubility (in words) [3]: could not be prepared

Molecule: O=P(O)(O)C(Cl)(Cl)P(=O)(O)O [clodronate]
- adverse effects (bone resorption [4]): development of acute leukemia
- efficacy on bone resorption and bone disease (bone resorption [4]): effective not only in Paget's disease, but also in the treatment of hypercalcemia and osteolytic bone disease

Molecule: CC(O)(P(=O)(O)O)P(=O)(O)O [etidronate]
- adverse effects (bone resorption [4]): impaired mineralization and thus, paradoxically, increased bone fragility
- efficacy on bone resorption and bone disease (bone resorption [4]): effective inhibitor of bone resorption

Molecule: O=[N+]([O-])[O-].O=[N+]([O-])[O-].O=[N+]([O-])[O-].[Ga+3] [gallium nitrate]
- EC50 (osteoclasts): 2 µM
- adverse effects (bone resorption [1]; gallium compound treatment): anemia, nausea and vomiting, and renal toxicity

Molecule: Cc1ccc(C(=O)Nc2ccc(S(=O)(=O)O)c3cc(S(=O)(=O)O)cc(S(=O)(=O)O)c23)cc1NC(=O)c1cccc(NC(=O)Nc2cccc(C(=O)Nc3cc(C(=O)Nc4ccc(S(=O)(=O)O)c5cc(S(=O)(=O)O)cc(S(=O)(=O)O)c45)ccc3C)c2)c1 [suramin]
- EC50 (osteoclasts; Osteoclast, 144 h): 0.7 µM

Molecule: CC(C)[C@@H]1NC(=O)[C@H](C)OC(=O)[C@@H](C(C)C)NC(=O)[C@@H](C(C)C)OC(=O)[C@H](C(C)C)NC(=O)[C@H](C)OC(=O)[C@@H](C(C)C)NC(=O)[C@@H](C(C)C)OC(=O)[C@H](C(C)C)NC(=O)[C@H](C)OC(=O)[C@@H](C(C)C)NC(=O)[C@@H](C(C)C)OC1=O [valinomycin]
- recovery of acidification after chloride channel inhibition [5]: recovered when 1 micromolar valinomycin was added

Molecule: PTH: synthetic PTH (BPTH 1-34 (i.e., rat peptide 1-34), purchased from Bachem California) (AVSEIQLMHNLGKHLASVERMQWLRKKLQDVHNF; Parathyroid hormone; UniProt P04089 32-65, looked up, fragment)
- serum calcium (in words) ([6]; PTH without Tl-EDTA or In-EDTA, with or without parathyroid gland): elevated calcium concentrations
- serum calcium level relative to pretreatment levels ([6]; constant PTH by subcutaneous osmotic pump, parathyroidectomized rats): 150%
